Experimental data taken from patent publication US20130071897A1, “METHOD FOR CONTROLLING UNDESIRABLE BYPRODUCTS FORMATION CAUSED BY CONTAMINATING ORGANISMS IN THE PRODUCTION OF ETHANOL FROM SYNGAS” (COSKATA, INC., priority 2011, published 2013).
“And” between values parts separate entries of the source, which are not always exact repeats. Equal entries are not always repeated.

Test system: butyrogen population
Assay: 2-L continuous syngas fermenter with butyrogen-contaminated Clostridium autoethanogenum culture
Assay type: cell-based
Experimental: Additional experiments were conducted to determine the effect of the crotonyl derivatives in continuous fermentations containing butyrogen contamination. Compounds A and D were tested in a 2-L fermenter containing a seed culture from a 10,000 gallon bioreactor used in a large scale fermentation run.
To initiate the 2 liter fermentation a seed culture from the large scale fermenter was introduced into the 2 liter fermenter and grown on yeast extract to an OD greater than 1 at which time a substantial production of butyrogens was observed. The 2 liter fermenter was a Sartorius Biostat B Series fermenter that operated as a continuously stirred tank with a mixing speed of 200 rpm. After 24 hours of initial growth a gas stream having a composition 38% CO, 38% H2, 15% C02 and the balance CH4 was introduced into the fermenter. The fermentation was conducted at a temperature of 37° C., a pH of 5.30±0.05 and contained approximately 2 liters of fermentation media having a composition found in Table 8. Fresh fermentation media was continually added to the 2 liter fermenter at rate sufficient to establish a mean cell retention time of 5.8 days. The fermentation was allowed to progress and different concentrations of the compounds A and D were added to the fermentation as intermittent injections at different times. Each injection was allowed to wash out of the fermenter before next injection. The presence of acetate and butyrate compounds in the fermenter along with the OD of the fermentation media are shown in FIG. 3.
After approximately 500 hours of fermenter operation compound A was added directly into the fermenter to a concentration of 500 ppm when the OD was 1.82 and butyrate concentration was 4.5 g/L. Following introduction of the compound, the OD decreased rapidly by almost 50% in the first 24 hours and the butyrate concentration decreased by 20% in the same time period. Also in the first 24 hours the butanol content increased rapidly by 6-fold to 0.68 g/L, indicating rapid conversion of the butyric acid to butanol. The rate of conversion of the butyric acid and the dilution rate of the media combined to dramatically decrease the butyrate production rate until it was brought down to zero within 80 hours of initially adding compound A. (See FIG. 4) In addition the OD continued to decrease to a low of 0.54 after 80 hours.
After approximately 700 hours of fermenter operation and the washout of the first 500 ppm addition of compound A, another 50 ppm of compound A was added directly into the fermenter. A decrease in OD and butyrate concentration (See FIG. 3) followed the 50 ppm addition and continued for at least for the first 3 days.
After approximately another 8 days and the washout of the 50 ppm addition of compound A, the butyrate concentration increased to 2 g/L. At this time another 100 ppm of compound A was added directly into the fermenter approximately 890 hours into the run. […] After about 24 hours, the butyrate concentration began to decrease again declining almost 50% over the next 4 days. (See FIG. 3)
Fermenter operation was continued under the same operating conditions following the 100 ppm addition of compound A. After allowing 20 days for the complete wash out of compound A, 100 ppm of compound D was added directly into the fermenter approximately 1370 hours into the fermenter run. Upon the addition of compound D there was a sharp rise in the ethanol concentration and acetic acid concentration accompanied by a decrease in the butyrate production.
For 12 days after the first injection of compound D into the fermenter, the fermenter was allowed to wash out compound D. Then 500 ppm of compound D was injected directly into the fermenter after about 1660 hours of fermenter operation. (See FIG. 3) The resulting concentrations of the C2 and C4 alcohols and acids from the time of adding the 500 ppm of compound D are shown in Table 10.

[1] = 100 ppm compound D at approximately 1370 hours
[2] = 500 ppm compound D, 0 Hr after addition
[3] = 500 ppm compound D, 30 Hr after addition
[4] = 500 ppm compound D, 49 Hr after addition
[5] = 500 ppm compound D, 73 Hr after addition
[6] = 500 ppm compound D, 123 Hr after addition
[7] = 500 ppm compound D, 145 Hr after addition
[8] = 500 ppm compound D, 168 Hr after addition
[9] = 500 ppm compound D, 193 Hr after addition
[10] = 500 ppm compound D, 217 Hr after addition
[11] = 500 ppm compound D, 240 Hr after addition
[12] = 500 ppm compound A, 0.0 Hr after addition
[13] = 500 ppm compound A, 24.0 Hr after addition
[14] = 500 ppm compound A, 49.0 Hr after addition
[15] = 500 ppm compound A, 80.0 Hr after addition
[16] = 500 ppm compound A, 121.0 Hr after addition
[17] = 500 ppm compound A, 145.0 Hr after addition
[18] = 500 ppm compound A, first 24 hours
[19] = approximately 140 hours after 500 ppm addition of compound A

O=C(O)C=C(C(F)(F)F)C(F)(F)F [D, 4,4,4-trifluoro-3-(trifluoromethyl)crotonic acid]
Butanol concentration [1]: rose temporarily
Butyrate Production [1]: decrease
Ethanol concentration and acetic acid concentration [1]: sharp rise
Inhibition of butyrogens versus homoacetogenic organisms (500 ppm compound D): butyrogens were specifically inhibited whereas the homoacetogenic organisms were not inhibited
Acetic acid [2]: 8.72 g/L
Butyric acid [2]: 1.51 g/L
EtOH [2]: 0.55 g/L
OD @600 nm [2]: 1.40
n-Butanol [2]: 0.21 g/L
Acetic acid [3]: 8.48 g/L
Butyric acid [3]: 1.47 g/L
EtOH [3]: 0.61 g/L
OD @600 nm [3]: 1.35
n-Butanol [3]: 0.23 g/L
Acetic acid [4]: 8.64 g/L
Butyric acid [4]: 1.44 g/L
EtOH [4]: 0.69 g/L
OD @600 nm [4]: 1.23
n-Butanol [4]: 0.26 g/L
Acetic acid [5]: 8.56 g/L
Butyric acid [5]: 1.37 g/L
EtOH [5]: 0.68 g/L
OD @600 nm [5]: 1.12
n-Butanol [5]: 0.26 g/L
Acetic acid [6]: 8.72 g/L
Butyric acid [6]: 1.41 g/L
EtOH [6]: 0.53 g/L
OD @600 nm [6]: 0.92
n-Butanol [6]: 0.19 g/L
Acetic acid [7]: 8.75 g/L
Butyric acid [7]: 1.36 g/L
EtOH [7]: 0.88 g/L
OD @600 nm [7]: 1.12
n-Butanol [7]: 0.26 g/L
Acetic acid [8]: 8.83 g/L
Butyric acid [8]: 1.11 g/L
EtOH [8]: 0.95 g/L
OD @600 nm [8]: 1.38
n-Butanol [8]: 0.28 g/L
Acetic acid [9]: 8.86 g/L
Butyric acid [9]: 1.12 g/L
EtOH [9]: 0.87 g/L
OD @600 nm [9]: 1.18
n-Butanol [9]: 0.24 g/L
Acetic acid [10]: 9.05 g/L
Butyric acid [10]: 1.13 g/L
EtOH [10]: 0.84 g/L
OD @600 nm [10]: 1.24
n-Butanol [10]: 0.21 g/L
Acetic acid [11]: 9.21 g/L
Butyric acid [11]: 1.17 g/L
EtOH [11]: 0.82 g/L
OD @600 nm [11]: 1.25
n-Butanol [11]: 0.21 g/L

CCOC(=O)C=C(C(F)(F)F)C(F)(F)F [Compound A, ethyl 4,4,4-trifluoro-3-(trifluoromethyl)crotonate]
Effect on the butyrogen population shortly after addition (2-L butyrogenic reactor, 500, 50 and 100 ppm trials): inhibitory and bactericidal effect
Concentration of ethanol and acetic acid (50 ppm compound A at approximately 700 hours): continued increase
OD and butyrate concentration (50 ppm compound A at approximately 700 hours, at least first 3 days): decrease
Ethanol concentration (100 ppm compound A at approximately 890 hours): began to immediately increase
Decline of butyrate concentration (100 ppm compound A at approximately 890 hours, over 4 days, starting about 24 hours after addition): ~50%
Acetic acid [12]: 3.237 g/L
Butyric acid [12]: 4.5 g/L and 4.503 g/L
Ethanol [12]: 0.026 g/L
OD @600 nm [12]: 1.82
n-Butanol [12]: 0.109 g/L
Acetic acid [13]: 2.728 g/L
Butyric acid [13]: 3.600 g/L
Ethanol [13]: 0.266 g/L
OD @600 nm [13]: 1.09
n-Butanol [13]: 0.68 g/L and 0.681 g/L
Acetic acid [14]: 2.333 g/L
Butyric acid [14]: 3.074 g/L
Ethanol [14]: 0.255 g/L
OD @600 nm [14]: 0.76
n-Butanol [14]: 0.601 g/L
Acetic acid [15]: 1.959 g/L
Butyric acid [15]: 2.542 g/L
Ethanol [15]: 0.212 g/L
OD @600 nm [15]: 0.54
n-Butanol [15]: 0.497 g/L
Acetic acid [16]: 2.446 g/L
Butyric acid [16]: 1.842 g/L
Ethanol [16]: 0.345 g/L
OD @600 nm [16]: 0.75
n-Butanol [16]: 0.513 g/L
Acetic acid [17]: 4.082 g/L
Butyric acid [17]: 1.645 g/L
Ethanol [17]: 0.441 g/L
OD @600 nm [17]: 1.17
n-Butanol [17]: 0.311 g/L
Decrease of OD [18]: ~50%
Decrease of butyrate concentration [18]: 20%
Increase of butanol content [18]: 6 fold
Time until butyrate production rate was brought down to zero (500 ppm compound A, from initial addition): ≤ 80 h
Acetic acid production [19]: dramatic rise
Increase in ethanol [19]: over 100%
OD recovery [19]: nearly recovered to its original level
